# Measurements from patent US7098199B2 (Sterix Limited, priority 1991, dated 2006).
# Like-named read-outs stand apart in the source and are kept apart here.
# Key:
# [1] = target: T1, oestrone sulphatase (E1-STS) (Homo sapiens, UniProt P08842); format: cell-based; conditions: intact MCF-7 cells, 20 h
# T1 sequence (P08842 22-583): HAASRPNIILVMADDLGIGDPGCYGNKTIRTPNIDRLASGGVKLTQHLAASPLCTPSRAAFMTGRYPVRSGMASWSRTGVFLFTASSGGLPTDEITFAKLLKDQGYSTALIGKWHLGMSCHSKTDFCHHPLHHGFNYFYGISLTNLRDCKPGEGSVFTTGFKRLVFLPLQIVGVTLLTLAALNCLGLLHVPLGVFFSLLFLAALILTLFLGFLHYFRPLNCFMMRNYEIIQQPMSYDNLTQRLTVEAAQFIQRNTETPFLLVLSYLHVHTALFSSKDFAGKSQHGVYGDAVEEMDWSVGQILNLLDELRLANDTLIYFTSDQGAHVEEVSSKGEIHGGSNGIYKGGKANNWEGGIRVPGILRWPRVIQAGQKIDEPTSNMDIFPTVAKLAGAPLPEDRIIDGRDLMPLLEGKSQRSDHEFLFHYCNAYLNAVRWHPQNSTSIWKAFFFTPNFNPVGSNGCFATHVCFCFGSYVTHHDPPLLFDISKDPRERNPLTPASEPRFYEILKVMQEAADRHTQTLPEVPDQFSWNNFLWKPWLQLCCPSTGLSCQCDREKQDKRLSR
# E1-STS [2] = target: T2, E1-STS (Homo sapiens, UniProt P08842); assay: Hydrolysis of coumarin sulphate (12) by placental microsomes, TLC; format: biochemical
# T2 construct: from tissue; host or cells: placental microsomes (100,000 g fraction)
# T2 sequence (P08842 22-583): T1 sequence (P08842 22-583)
# [3] = Chemical and thermal stability of compound 12; format: physicochemical; conditions: sodium hydroxide in methanol
# Text: Two equivalents of sodium hydroxide are required for consuming excess sulphur trioxide-pyridine complex to yield the neutral sodium sulphate. Insufficient amount of sodium hydroxide will therefore lead to the formation of sodium hydrogen sulphate which is acidic.
# uterine growth = assay: In vivo oestrogenicity: uterine weight in ovariectomised rats (NOMATE); design: species or system rat; conditions: 0.1 mg/Kg/day for five days orally
# Procedure: (§1) Using 17-deoxy oestrone-3-O-sulphamate (NOMATE, FIG. 5 Formula IV where X=—OSO2NH2, Y=—CH2— and R1 and R2=H, and FIG. 13) as a representative example, the ability of this compound to inhibit oestrone sulphatase activity in vivo was examined in rats. The oestrogenicity of this compound was examined in ovariectomised rats. In this model compounds which are oestrogenic stimulate uterine growth.
# NOMATE (0.1 mg/Kg/day for five days) was administered orally to rats with another group of animals receiving vehicle only (propylene glycol). At the end of the study uteri were obtained and weighed with the results being expressed as uterine weight/whole body weight×100.
# oestrone sulphatase [4] = target: T3, oestrone sulphatase (Rattus norvegicus, UniProt P15589); assay: Inhibition of oestrone sulphatase activity in vivo in rat liver (NOMATE); conditions: 0.1 mg/Kg/day for five days orally; rat liver tissue; compared with untreated controls
# T3 construct: samples of liver tissue were obtained; from tissue; host or cells: rat liver
# T3 sequence (P15589 20-577): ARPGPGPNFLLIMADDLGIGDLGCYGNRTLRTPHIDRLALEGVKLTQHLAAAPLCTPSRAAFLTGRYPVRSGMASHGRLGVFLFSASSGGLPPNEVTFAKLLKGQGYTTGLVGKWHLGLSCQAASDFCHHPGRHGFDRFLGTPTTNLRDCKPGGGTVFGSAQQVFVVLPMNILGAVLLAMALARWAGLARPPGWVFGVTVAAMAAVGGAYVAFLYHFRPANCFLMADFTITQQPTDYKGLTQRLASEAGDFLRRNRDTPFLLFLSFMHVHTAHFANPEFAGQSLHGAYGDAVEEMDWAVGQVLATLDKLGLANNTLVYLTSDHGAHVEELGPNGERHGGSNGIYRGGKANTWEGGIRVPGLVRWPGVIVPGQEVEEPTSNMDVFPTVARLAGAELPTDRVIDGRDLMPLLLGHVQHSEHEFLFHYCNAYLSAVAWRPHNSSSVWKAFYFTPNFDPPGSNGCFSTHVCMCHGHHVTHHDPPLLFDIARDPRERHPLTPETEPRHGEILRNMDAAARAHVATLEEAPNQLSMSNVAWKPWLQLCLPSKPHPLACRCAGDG
# Procedure: as §1
# NOMATE (0.1 mg/Kg/day for five days) was administered orally to rats with another group of animals receiving vehicle only (propylene glycol). At the end of the study samples of liver tissue were obtained and oestrone sulphatase activity assayed using ^3H oestrone sulphate as the substrate as previously described.
# oestrone sulphatase [5] = target: T4, oestrone sulphatase (Homo sapiens, UniProt P08842)
# T4 sequence (P08842 22-583): T1 sequence (P08842 22-583)
# E1-STS [6] = target: T5, E1-STS (Rattus norvegicus, UniProt P15589); assay: E1-STS activity in uteri of treated ovariectomised rats; format: in vivo; conditions: 1 mg/kg subcutaneously for 5 days, compared with untreated animals
# T5 construct: The E1-STS activity in the uteri obtained from these animals; from tissue; host or cells: rat uterus
# T5 sequence (P15589 20-577): T3 sequence (P15589 20-577)
# sulphatase = target: T6, sulphatase (Rattus norvegicus, UniProt P15589); assay: Sulphatase activity in white blood cells of rats after oral dosing; format: in vivo; conditions: for % Inhibition MD / % Inhibition SD: white blood cells; for % Inhibition SD: single dose
# T6 construct: from tissue; host or cells: rat white blood cells
# T6 sequence (P15589 20-577): T3 sequence (P15589 20-577)
# Procedure: Inhibition of sulphatase activity was assessed in white blood cells (wbcs) that were collected after a SD or MD. Sulphatase activity was assayed using labelled oestrone sulphate as the substrate and measuring the release of oestrone.
# uterine weight = assay: Oestrogenic activity: uterine weight in ovariectomised rats (compound 14); format: in vivo, rat; conditions: 1 mg/kg subcutaneously for 5 days
# [7] = target: T7, Steroid sulphatase (Steryl Sulphatase EC3.1.6.2) (Homo sapiens, UniProt P08842); assay: Steroid sulphatase activity in intact MCF-7 cells; format: cell-based; conditions: for Steroid Sulphatase Activity: mean ± 1 S.D., n = 3
# T7 construct: endogenous in cells; host or cells: MCF-7 human breast cancer cells
# T7 sequence (P08842 22-583): T1 sequence (P08842 22-583)
# Procedure: Steroid sulphatase is defined as: Steryl Sulphatase EC3.1.6.2.
# Steroid sulphatase activity was measured in vitro using intact MCF-7 human breast cancer cells. This hormone dependent cell line is widely used to study the control of human breast cancer cell growth. […] Cells were maintained in Minimal Essential Medium (MEM) (Flow Laboratories, Irvine, Scotland) containing 20 mM HEPES, 5% foetal bovine serum, 2 mM glutamine, nonessential amino acids and 0.075% sodium bicarbonate. Up to 30 replicate 25 cm^2 tissue culture flasks were seeded with approximately 1×10^5 cells/flask using the above medium. Cells were grown to 80% confluency and medium was changed every third day.
# Each batch of experiments included incubations of microsomes prepared from a sulphatase-positive human placenta (positive control) and flasks without cells (to assess apparent non-enzymatic hydrolysis of the substrate). The number of cell nuclei per flask was determined using a Coulter Counter after treating the cell monolayers with Zaponin. One flask in each batch was used to assess cell membrane status and viability using the Trypan Blue exclusion method (Phillips, H. J. (1973) In: Tissue culture and applications,[eds: Kruse, D. F. & Patterson, M. K.]; pp. 406–408; Academic Press, New York).
# Unpaired Student's t-test was used to test the statistical significance of results.
# An identical experimental protocol to that described in Example 4 was used to generate results for oestrone-3-N,N-diimethylsulphamate except that incubations contained oestrone-3-N,N-dimethylsulphaiate (5 concentrations: 0; 0.001 μM; 0.01 μM; 0.1 μM; 1 μM) in place of oestrone-3-sulphamate.
# Steroid sulphatase [8] = target: T8, Steroid sulphatase (Homo sapiens, UniProt P08842); assay: biochemical
# T8 sequence (P08842 22-583): T1 sequence (P08842 22-583)
# Steroid sulphatase [9] = target: T9, Steroid sulphatase (Rattus norvegicus, UniProt P15589); assay: Steroid sulphatase activity in liver microsome preparations from rats treated subcutaneously; format: in vivo; design: except that the tissue source was rat liver; from tissue; host or cells: liver of female Wistar rats; conditions: 10 mg/kg/day s.c. for 7 days, rat liver microsomes; for Steroid Sulphatase Activity: mean ± 1 S.D., n = 3
# T9 sequence (P15589 20-577): T3 sequence (P15589 20-577)
# [10] = target: T7, Steroid sulphatase (Steryl Sulphatase EC3.1.6.2); assay: Steroid sulphatase activity in MCF-7 cells pre-incubated with inhibitor and washed; format: cell-based; conditions: pre-treatment 2 hours with 0.1 μM, cells washed 3 times; mean ± 1 S.D., n = 3
# Steroid sulphatase [11] = target: T8, Steroid sulphatase; assay: Steroid sulphatase activity in placental microsomes; conditions: for Steroid Sulphatase Activity: mean of 2 estimates
smiles,measurement,setting,value
"NS(=O)(=O)Oc1ccc2c(C(F)(F)F)cc(=O)oc2c1 [compound 16, 4-(trifluoromethylcoumarin)-7-O-sulphamate]",inhibition of oestrone sulphatase at 10 μM,[1],71.5%
"Cc1cc(=O)oc2cc(OS(=O)(=O)[O-])ccc12.[Na+] [Compound 12, 7-(Sulphoxy)4-Methylcoumarin. sodium salt, reference compound]",substrate for E1-STS (in words),E1-STS [2]; 100 μg incubated for 1 hour with placental microsomes,is indeed a substrate for the sulphatase
same,stability in bases and acidic conditions (in words),[3],stable in bases such as sodium hydroxide in methanol but not in acidic conditions
"C[C@@]12CCC[C@H]1[C@@H]1CCc3cc(OS(N)(=O)=O)ccc3[C@H]1CC2 [NOMATE, 17-deoxy oestrone-3-O-sulphamate]","effect on uterine growth (oestrogenicity, in words)",uterine growth,no significant effect on uterine growth
same,inhibition of oestrone sulphatase activity in vivo,oestrone sulphatase [4],98%
same,% Inhibition (Mean) Placental Microsomes,oestrone sulphatase [5]; concentration tested 0.1 mM (so in the source),97.2%
same,% Inhibition (Mean) Placental Microsomes,oestrone sulphatase [5]; concentration tested 1 mM (so in the source),99.5%
same,% Inhibition (Mean) Placental Microsomes,oestrone sulphatase [5]; concentration tested 10 mM (so in the source),99.5%
same,% Inhibition (Mean) Placental Microsomes,oestrone sulphatase [5]; concentration tested 25 mM (so in the source),99.7%
Cc1cc(=O)oc2cc(OS(N)(=O)=O)ccc12 [compound 14],inhibition of E1-STS activity in the uteri,E1-STS [6],89.4%
same,% Inhibition MD,sulphatase; 0.1 mg/kg oral daily for seven days,65%
same,% Inhibition SD,sulphatase; 0.1 mg/kg oral,72%
same,% Inhibition MD,sulphatase; 1.0 mg/kg oral daily for seven days,85%
same,% Inhibition SD,sulphatase; 1.0 mg/kg oral,85%
same,% Inhibition MD,sulphatase; 10.0 mg/kg oral daily for seven days,89%
same,% Inhibition SD,sulphatase; 10.0 mg/kg oral,96%
same,oral activity in rats (in words),"sulphatase; oral, rats",potent oral activity
same,"uterine weight (oestrogenic activity, in words)",uterine weight,did not result in any significant increase in the uterine weight
C[C@]12CC[C@@H]3c4ccc(OS(N)(=O)=O)cc4CC[C@H]3[C@@H]1CCC2=O [Oestrone-3-sulphamate],inhibition at 10 pM,"[7]; MCF7, inhibitor 0.01 nM, read-out: % reduction over control (% inhibition)",17.2%
same,inhibition at 0.0001 µM,"[7]; MCF7, inhibitor 0.1 nM, read-out: % reduction over control (% inhibition)",60.9%
same,inhibition at 0.001 µM,"[7]; MCF7, inhibitor 1 nM, read-out: % reduction over control (% inhibition)",95%
same,inhibition at 0.01 µM,"[7]; MCF7, inhibitor 0.01 μM, read-out: % reduction over control (% inhibition)",98.8%
same,inhibition at 0.1 µM,"[7]; MCF7, inhibitor 0.1 μM, read-out: % reduction over control (% inhibition)",99.2%
same,inhibition at 1 µM,"[7]; MCF7, inhibitor 1 μM, read-out: % reduction over control (% inhibition)",99.5%
same,Steroid Sulphatase Activity,[7]; inhibitor 0.01 pM,362.3 ± 21.2 fmol/20 hr/10^6 cells
same,Steroid Sulphatase Activity,[7]; inhibitor 0.1 pM,330.7 ± 17.8 fmol/20 hr/10^6 cells
same,Steroid Sulphatase Activity,[7]; inhibitor 1 pM,321.8 ± 6.2 fmol/20 hr/10^6 cells
same,Steroid Sulphatase Activity,[7]; inhibitor 0.01 nM,265.1 ± 11.0 fmol/20 hr/10^6 cells
same,Steroid Sulphatase Activity,[7]; inhibitor 0.1 nM,124.8 ± 12.4 fmol/20 hr/10^6 cells
same,Steroid Sulphatase Activity,[7]; inhibitor 1 nM,16.49 ± 4.7 fmol/20 hr/10^6 cells
same,Steroid Sulphatase Activity,[7]; inhibitor 0.01 μM,3.92 ± 0.4 fmol/20 hr/10^6 cells
same,Steroid Sulphatase Activity,[7]; inhibitor 0.1 μM,2.53 ± 1.1 fmol/20 hr/10^6 cells
same,Steroid Sulphatase Activity,[7]; inhibitor 1 μM,1.68 ± 0.7 fmol/20 hr/10^6 cells
same,Steroid Sulphatase Activity,[7]; inhibitor 1 fM,353.3 ± 39.0 fmol/20 hr/10^6 cells
same,IC50,Steroid sulphatase [8],70 nM
same,% reduction over control,Steroid sulphatase [9]; assay substrate DHA-S,94.2%
same,Steroid Sulphatase Activity,Steroid sulphatase [9]; assay substrate DHA-S,0.1 ± 0.01 nmol/30 min/200 mg protein
same,% reduction over control,Steroid sulphatase [9]; assay substrate E1-S,98.4%
same,Steroid Sulphatase Activity,Steroid sulphatase [9]; assay substrate E1-S,0.34 ± 0.1 nmol/30 min/200 mg protein
same,effect on hydrolysis of compound (12) by E1-STS (in words),E1-STS [2]; EMATE 10 μM,reduced the hydrolysis of compound (12) by E1-STS
same,Steroid Sulphatase Activity,[10],1.7 ± 0.2 fmol/20 hr/10^6 cells
same,% reduction over control (% inhibition),Steroid sulphatase [11]; 0.05 µM,44.0%
same,% reduction over control (% inhibition),Steroid sulphatase [11]; 0.1 μM,60.2%
same,% reduction over control (% inhibition),Steroid sulphatase [11]; 0.2 µM,81.8%
same,% reduction over control (% inhibition),Steroid sulphatase [11]; 0.4 µM,89.2%
same,% reduction over control (% inhibition),Steroid sulphatase [11]; 0.6 µM,92.0%
same,% reduction over control (% inhibition),Steroid sulphatase [11]; 0.8 µM,93.6%
same,% reduction over control (% inhibition),Steroid sulphatase [11]; 1 μM,93.3%
same,Steroid Sulphatase Activity,Steroid sulphatase [11]; inhibitor 0.05 μM,430.4 pmol/hr/0.1 mg protein
same,Steroid Sulphatase Activity,Steroid sulphatase [11]; inhibitor 0.1 μM,305.9 pmol/hr/0.1 mg protein
same,Steroid Sulphatase Activity,Steroid sulphatase [11]; inhibitor 0.2 μM,140.0 pmol/hr/0.1 mg protein
same,Steroid Sulphatase Activity,Steroid sulphatase [11]; inhibitor 0.4 μM,83.3 pmol/hr/0.1 mg protein
same,Steroid Sulphatase Activity,Steroid sulphatase [11]; inhibitor 0.6 μM,61.8 pmol/hr/0.1 mg protein
same,Steroid Sulphatase Activity,Steroid sulphatase [11]; inhibitor 0.8 μM,49.2 pmol/hr/0.1 mg protein
same,Steroid Sulphatase Activity,Steroid sulphatase [11]; inhibitor 1.0 μM,51.6 pmol/hr/0.1 mg protein
